According to ChEMBL document CHEMBL4507263, “Data for DCP probe BAY-474” (2021):

Experiments:
[1] = target: Serine/threonine-protein kinase N1 (Homo sapiens) (UniProt Q16512); conditions: Compound concentration 1000.0 nM
[2] = target: Casein kinase I isoform alpha (Homo sapiens) (UniProt P48729); conditions: Compound concentration 1000.0 nM
[3] = target: T1, Muscarinic acetylcholine receptor M1 (Homo sapiens) (UniProt P11229); conditions: Compound concentration 10.0 uM
T1 sequence (whole entry): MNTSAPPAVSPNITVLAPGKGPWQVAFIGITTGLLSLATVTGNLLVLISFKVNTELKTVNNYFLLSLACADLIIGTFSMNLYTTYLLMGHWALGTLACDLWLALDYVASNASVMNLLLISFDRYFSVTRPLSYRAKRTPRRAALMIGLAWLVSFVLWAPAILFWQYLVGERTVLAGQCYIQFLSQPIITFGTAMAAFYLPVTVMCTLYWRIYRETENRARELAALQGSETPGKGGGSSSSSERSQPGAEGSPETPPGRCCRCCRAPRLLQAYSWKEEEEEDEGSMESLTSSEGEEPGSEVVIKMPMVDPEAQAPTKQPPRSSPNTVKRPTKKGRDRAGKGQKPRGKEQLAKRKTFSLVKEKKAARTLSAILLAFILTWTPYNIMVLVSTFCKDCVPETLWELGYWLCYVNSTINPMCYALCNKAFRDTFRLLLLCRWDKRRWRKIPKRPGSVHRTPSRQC

[4] = target: Serine/threonine-protein kinase MRCK gamma (Homo sapiens) (UniProt Q6DT37); conditions: Compound concentration 1000.0 nM
[5] = target: T2, 5-hydroxytryptamine receptor 1A (Homo sapiens) (UniProt P08908); conditions: Compound concentration 10.0 uM
T2 sequence (whole entry): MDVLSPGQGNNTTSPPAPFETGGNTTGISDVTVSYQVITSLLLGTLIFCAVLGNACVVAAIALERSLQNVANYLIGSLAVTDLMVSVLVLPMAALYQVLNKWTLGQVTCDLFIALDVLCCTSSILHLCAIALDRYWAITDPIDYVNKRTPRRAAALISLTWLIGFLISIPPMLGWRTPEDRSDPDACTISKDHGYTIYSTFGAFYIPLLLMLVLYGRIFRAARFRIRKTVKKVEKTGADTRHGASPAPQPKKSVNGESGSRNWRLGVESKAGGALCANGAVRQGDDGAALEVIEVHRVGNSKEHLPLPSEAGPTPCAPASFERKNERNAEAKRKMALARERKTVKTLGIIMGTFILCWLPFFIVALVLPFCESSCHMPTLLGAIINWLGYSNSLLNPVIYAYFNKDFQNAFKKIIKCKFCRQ

[6] = target: Serine/threonine-protein kinase PAK 6 (Homo sapiens) (UniProt Q9NQU5); conditions: Compound concentration 1000.0 nM
[7] = target: T3, Alpha-1D adrenergic receptor (Homo sapiens) (UniProt P25100); conditions: Compound concentration 10.0 uM
T3 sequence (whole entry): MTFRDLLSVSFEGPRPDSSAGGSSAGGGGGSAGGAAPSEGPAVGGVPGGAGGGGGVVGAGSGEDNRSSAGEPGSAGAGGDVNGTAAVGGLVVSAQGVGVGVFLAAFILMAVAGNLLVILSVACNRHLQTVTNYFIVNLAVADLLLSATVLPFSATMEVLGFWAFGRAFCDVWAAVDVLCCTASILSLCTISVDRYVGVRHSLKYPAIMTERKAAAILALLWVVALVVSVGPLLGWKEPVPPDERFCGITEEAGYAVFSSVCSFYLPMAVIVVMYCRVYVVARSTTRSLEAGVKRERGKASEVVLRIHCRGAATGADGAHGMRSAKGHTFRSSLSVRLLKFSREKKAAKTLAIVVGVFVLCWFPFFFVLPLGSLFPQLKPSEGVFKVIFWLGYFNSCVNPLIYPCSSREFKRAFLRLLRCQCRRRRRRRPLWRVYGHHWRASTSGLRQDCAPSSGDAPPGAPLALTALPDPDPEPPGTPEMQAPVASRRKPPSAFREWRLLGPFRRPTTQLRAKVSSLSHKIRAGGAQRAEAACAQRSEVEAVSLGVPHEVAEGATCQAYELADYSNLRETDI

[8] = target: Bone morphogenetic protein receptor type-2 (Homo sapiens) (UniProt Q13873); conditions: Compound concentration 1000.0 nM
[9] = target: Cyclin-dependent kinase 13 (Homo sapiens) (UniProt Q14004); conditions: Compound concentration 1000.0 nM
[10] = target: D(2) dopamine receptor (Homo sapiens) (UniProt P14416); conditions: Compound concentration 10.0 uM
Sequence of D(2) dopamine receptor (Homo sapiens) (P14416 whole entry): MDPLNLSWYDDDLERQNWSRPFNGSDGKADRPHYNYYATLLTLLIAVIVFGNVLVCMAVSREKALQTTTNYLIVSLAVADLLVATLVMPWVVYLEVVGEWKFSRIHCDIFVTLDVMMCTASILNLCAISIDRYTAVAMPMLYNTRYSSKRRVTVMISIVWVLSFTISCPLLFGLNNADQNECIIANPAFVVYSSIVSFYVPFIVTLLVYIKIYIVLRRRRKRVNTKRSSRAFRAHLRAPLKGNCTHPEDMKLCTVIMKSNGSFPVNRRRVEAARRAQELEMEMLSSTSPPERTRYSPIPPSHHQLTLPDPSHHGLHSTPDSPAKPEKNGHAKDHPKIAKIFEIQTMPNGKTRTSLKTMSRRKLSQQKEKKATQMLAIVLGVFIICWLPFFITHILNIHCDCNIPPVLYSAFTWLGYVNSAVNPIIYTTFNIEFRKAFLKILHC

[11] = target: Ephrin type-B receptor 4 (Homo sapiens) (UniProt P54760); conditions: Compound concentration 1000.0 nM
Sequence of Ephrin type-B receptor 4 (Homo sapiens) (P54760 whole entry): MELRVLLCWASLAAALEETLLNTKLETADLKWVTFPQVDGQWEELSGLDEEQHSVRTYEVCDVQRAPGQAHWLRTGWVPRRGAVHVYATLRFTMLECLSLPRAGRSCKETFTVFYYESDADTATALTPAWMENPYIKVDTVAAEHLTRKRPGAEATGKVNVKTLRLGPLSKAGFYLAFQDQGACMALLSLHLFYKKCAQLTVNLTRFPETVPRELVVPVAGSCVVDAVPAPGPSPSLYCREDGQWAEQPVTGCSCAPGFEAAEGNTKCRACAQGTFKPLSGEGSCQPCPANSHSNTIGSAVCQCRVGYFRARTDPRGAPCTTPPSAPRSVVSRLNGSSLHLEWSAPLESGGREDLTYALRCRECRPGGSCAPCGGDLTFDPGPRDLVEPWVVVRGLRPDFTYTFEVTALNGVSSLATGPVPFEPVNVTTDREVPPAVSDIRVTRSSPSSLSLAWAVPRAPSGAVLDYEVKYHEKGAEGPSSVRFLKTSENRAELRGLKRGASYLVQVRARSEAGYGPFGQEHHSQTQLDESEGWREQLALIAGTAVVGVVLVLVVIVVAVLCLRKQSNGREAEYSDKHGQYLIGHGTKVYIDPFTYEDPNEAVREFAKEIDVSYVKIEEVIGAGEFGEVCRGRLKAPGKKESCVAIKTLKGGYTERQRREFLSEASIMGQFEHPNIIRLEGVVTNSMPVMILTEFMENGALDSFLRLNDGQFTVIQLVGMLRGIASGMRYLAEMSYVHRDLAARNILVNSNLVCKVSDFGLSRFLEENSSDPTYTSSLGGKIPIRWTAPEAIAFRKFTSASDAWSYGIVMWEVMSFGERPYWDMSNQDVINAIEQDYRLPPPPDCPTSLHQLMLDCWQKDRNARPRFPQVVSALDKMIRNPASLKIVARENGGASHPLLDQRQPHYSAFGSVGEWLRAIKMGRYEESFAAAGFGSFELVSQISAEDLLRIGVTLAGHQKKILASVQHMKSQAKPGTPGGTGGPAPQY

[12] = target: Protein kinase C iota type (Homo sapiens) (UniProt P41743); conditions: Compound concentration 1000.0 nM
Sequence of Protein kinase C iota type (Homo sapiens) (P41743 whole entry): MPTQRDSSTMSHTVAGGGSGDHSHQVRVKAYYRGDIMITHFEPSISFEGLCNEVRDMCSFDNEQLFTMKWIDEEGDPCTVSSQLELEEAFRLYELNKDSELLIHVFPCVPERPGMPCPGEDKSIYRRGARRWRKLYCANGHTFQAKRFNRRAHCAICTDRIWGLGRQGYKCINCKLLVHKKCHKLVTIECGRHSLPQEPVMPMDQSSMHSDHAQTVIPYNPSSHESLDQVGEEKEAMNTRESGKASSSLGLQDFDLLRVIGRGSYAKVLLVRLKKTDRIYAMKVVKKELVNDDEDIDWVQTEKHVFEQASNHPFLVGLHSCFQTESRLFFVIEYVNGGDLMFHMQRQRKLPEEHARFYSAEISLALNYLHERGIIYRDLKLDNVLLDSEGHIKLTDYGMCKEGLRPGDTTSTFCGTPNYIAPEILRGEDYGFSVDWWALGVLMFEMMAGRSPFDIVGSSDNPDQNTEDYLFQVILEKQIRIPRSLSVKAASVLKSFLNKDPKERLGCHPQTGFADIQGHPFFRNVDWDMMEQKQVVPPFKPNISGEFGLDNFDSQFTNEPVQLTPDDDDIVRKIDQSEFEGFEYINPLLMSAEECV

[13] = target: Tyrosine-protein kinase Fes/Fps (Homo sapiens) (UniProt P07332); conditions: Compound concentration 1000.0 nM
[14] = target: Testis-specific serine/threonine-protein kinase 1 (Homo sapiens) (UniProt Q9BXA7); conditions: Compound concentration 1000.0 nM
[15] = target: Cyclin-dependent kinase 4 (Homo sapiens) (UniProt P11802); conditions: Compound concentration 1000.0 nM
[16] = target: Mitogen-activated protein kinase kinase kinase 13 (Homo sapiens) (UniProt O43283); conditions: Compound concentration 1000.0 nM
Sequence of Mitogen-activated protein kinase kinase kinase 13 (Homo sapiens) (O43283 whole entry): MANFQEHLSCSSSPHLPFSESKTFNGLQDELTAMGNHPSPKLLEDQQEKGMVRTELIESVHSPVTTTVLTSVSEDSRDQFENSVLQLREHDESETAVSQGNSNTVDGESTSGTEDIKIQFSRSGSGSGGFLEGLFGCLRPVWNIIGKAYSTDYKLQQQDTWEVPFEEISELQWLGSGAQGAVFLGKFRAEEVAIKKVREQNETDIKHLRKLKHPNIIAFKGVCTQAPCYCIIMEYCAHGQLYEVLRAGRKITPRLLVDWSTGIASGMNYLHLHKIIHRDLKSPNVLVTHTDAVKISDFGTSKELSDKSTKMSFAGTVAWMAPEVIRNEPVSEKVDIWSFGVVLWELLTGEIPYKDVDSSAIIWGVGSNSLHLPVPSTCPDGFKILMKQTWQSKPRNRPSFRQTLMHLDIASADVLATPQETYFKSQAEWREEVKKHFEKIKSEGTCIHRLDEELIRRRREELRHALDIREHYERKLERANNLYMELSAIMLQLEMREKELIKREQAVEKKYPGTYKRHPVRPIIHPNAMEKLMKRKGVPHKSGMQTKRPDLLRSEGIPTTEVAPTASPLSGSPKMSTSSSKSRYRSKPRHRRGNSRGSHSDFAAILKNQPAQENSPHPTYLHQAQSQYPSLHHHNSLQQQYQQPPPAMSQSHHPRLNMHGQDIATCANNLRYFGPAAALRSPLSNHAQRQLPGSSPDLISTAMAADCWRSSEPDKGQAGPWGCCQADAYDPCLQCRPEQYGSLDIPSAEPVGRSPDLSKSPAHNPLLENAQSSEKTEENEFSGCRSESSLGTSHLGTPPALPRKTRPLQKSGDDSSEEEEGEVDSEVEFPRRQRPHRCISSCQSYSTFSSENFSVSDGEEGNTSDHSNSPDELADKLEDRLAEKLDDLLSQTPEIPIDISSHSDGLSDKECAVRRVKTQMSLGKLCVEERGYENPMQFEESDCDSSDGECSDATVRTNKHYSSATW

[17] = target: Calcium/calmodulin-dependent protein kinase type 1G (Homo sapiens) (UniProt Q96NX5); conditions: Compound concentration 1000.0 nM
[18] = system: Proto-oncogene tyrosine-protein kinase receptor Ret (Homo sapiens), P07949 [V804M]; conditions: Compound concentration 1000.0 nM
[19] = target: Casein kinase I isoform gamma-3 (Homo sapiens) (UniProt Q9Y6M4); assay: CK1gamma3 (h) Millipore kinase activity assay; conditions: Compound concentration 1.0 uM
Sequence of Casein kinase I isoform gamma-3 (Homo sapiens) (Q9Y6M4 whole entry, looked up, canonical isoform): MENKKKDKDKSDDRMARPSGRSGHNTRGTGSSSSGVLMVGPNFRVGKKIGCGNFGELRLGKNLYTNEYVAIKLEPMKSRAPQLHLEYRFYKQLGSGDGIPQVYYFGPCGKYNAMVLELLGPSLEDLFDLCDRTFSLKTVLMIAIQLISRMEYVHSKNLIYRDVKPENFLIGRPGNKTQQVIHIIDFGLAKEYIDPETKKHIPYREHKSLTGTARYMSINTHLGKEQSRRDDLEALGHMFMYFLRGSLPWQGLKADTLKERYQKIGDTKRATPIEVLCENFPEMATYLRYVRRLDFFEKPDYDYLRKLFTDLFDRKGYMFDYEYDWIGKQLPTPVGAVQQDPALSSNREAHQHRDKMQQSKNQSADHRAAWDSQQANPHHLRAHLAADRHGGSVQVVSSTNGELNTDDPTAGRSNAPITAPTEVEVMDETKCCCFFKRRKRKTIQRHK

[20] = target: Cyclin-dependent kinase 5/CDK5 activator 1 (Homo sapiens) (UniProt Q00535+Q15078); assay: CDK5/p35 (h) Millipore kinase activity assay; format: protein-complex assay; conditions: Compound concentration 1.0 uM
Sequence of Cyclin-dependent kinase 5/CDK5 activator 1 (Homo sapiens) (Q00535 whole entry): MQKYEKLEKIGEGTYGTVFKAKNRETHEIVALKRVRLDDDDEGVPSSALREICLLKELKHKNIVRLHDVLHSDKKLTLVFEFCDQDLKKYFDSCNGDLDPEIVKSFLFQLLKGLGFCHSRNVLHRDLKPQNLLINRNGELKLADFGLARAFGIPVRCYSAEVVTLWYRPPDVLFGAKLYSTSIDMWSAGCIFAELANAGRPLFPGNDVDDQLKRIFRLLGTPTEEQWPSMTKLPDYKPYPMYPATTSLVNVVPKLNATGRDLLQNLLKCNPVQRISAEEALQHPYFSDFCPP
Sequence of Cyclin-dependent kinase 5/CDK5 activator 1 (Homo sapiens) (Q15078 99-307 partner limits assumed): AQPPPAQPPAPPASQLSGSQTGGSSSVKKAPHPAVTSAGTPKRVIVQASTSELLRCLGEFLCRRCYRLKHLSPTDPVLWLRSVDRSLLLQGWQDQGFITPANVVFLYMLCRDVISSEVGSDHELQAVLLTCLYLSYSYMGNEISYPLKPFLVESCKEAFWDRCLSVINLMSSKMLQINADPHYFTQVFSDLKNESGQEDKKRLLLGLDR

[21] = target: CDK9/cyclin T1 (Homo sapiens) (UniProt O60563+P50750); assay: CDK9/cyclin T1 (h) Millipore kinase activity assay; format: protein-complex assay; conditions: Compound concentration 1.0 uM
[22] = target: B1 bradykinin receptor (Homo sapiens) (UniProt P46663); assay: Inhibition of Bradykinin B1 at 10 µM in the Eurofins-Panlabs radioligand binding assay (Eurofins_assay_212510); conditions: Compound concentration 10.0 uM
[23] = target: Mitogen-activated protein kinase 1 (Homo sapiens) (UniProt P28482); assay: MAPK2( h) Millipore kinase activity assay; conditions: Compound concentration 1.0 uM
[24] = target: Fibroblast growth factor receptor 1 (Homo sapiens) (UniProt P11362); assay: FGFR1 (h) Millipore kinase activity assay; conditions: Compound concentration 1.0 uM
Rattus norvegicus = species: Rattus norvegicus; assay: Inhibition of Glutamate, NMDA, Phencyclidine at 10 µM in the Eurofins-Panlabs radioligand binding assay (Eurofins_assay_233000); format: protein-complex assay; conditions: Compound concentration 10.0 uM

Sequence of Serine/threonine-protein kinase N1 (Homo sapiens) (Q16512 2-942 limits assumed): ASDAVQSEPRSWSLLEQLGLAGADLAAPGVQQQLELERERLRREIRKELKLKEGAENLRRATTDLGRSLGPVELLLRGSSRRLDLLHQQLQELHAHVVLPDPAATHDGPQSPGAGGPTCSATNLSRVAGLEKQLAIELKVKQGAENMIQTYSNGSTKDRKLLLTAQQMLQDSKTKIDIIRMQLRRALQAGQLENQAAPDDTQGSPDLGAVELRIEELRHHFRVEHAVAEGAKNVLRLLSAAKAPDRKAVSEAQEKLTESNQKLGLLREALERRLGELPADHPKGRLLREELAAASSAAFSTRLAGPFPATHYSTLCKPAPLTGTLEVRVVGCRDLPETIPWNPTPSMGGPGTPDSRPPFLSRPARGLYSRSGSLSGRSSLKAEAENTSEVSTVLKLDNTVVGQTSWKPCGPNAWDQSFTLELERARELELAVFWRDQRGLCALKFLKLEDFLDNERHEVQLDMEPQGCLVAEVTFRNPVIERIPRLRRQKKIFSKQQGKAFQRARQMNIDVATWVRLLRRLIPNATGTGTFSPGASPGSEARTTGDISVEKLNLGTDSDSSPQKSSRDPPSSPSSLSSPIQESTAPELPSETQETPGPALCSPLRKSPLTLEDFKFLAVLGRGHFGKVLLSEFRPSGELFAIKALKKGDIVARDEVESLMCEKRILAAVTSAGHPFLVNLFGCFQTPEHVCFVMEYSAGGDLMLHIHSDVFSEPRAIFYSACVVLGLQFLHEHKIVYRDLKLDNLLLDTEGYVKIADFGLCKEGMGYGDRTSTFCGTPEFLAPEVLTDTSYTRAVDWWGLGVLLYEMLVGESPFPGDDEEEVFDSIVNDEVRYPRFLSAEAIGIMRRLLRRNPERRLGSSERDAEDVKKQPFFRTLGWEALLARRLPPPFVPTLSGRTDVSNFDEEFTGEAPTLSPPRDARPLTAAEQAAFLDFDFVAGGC

CC1=C(C#N)[C@@H](c2ccc3[nH]nc(C)c3c2)C(C#N)=C(c2ccc(Cl)cc2)N1 [BAY-827]
inactive: residual activity [1] 91.4% | residual activity [2] 64.7% | inhibition [3] 8.17% | residual activity [4] 93.6% | inhibition [5] 2.67% | residual activity [6] 100% | inhibition [7] 7.74% | residual activity [8] 100% | residual activity [9] 86.6% | inhibition [10] 10.6% | residual activity [11] 100% | residual activity [12] 99.4% | residual activity [13] 100% | residual activity [14] 100% | residual activity [15] 78.8% | residual activity [16] 100% | residual activity [17] 100% | residual activity [18] 73.8%

CC1=C(C#N)C(c2ccc3[nH]nc(C)c3c2)C(C#N)=C(C)N1 [BAY-474]
inactive: inhibition [19] 21% | inhibition [3] 13.9% | inhibition [20] -1% | inhibition [21] -10% | inhibition [5] -5.32% | inhibition [22] 6% | inhibition [7] 2.5% | inhibition [10] -7.07% | inhibition [23] 4% | inhibition [24] 23% | inhibition (Rattus norvegicus) 4%
